Read-outs that look alike come from different tables or passages of the source.
Test: FIH study 67856633LYM1001 plasma pharmacokinetics
Format: in vivo, human
Details: human, plasma
Source text: The study consists of a dose escalation phase (Part 1), to determine the recommended Phase 2 dose(s) (RP2D[s]), followed by an expansion phase at the RP2D(s) (Part 2). The dose escalation phase is supported using an adaptive dose escalation strategy guided by the modified continual reassessment method (mCRM) based on a Bayesian Logistic Regression Model (BLRM) with escalation with overdose control (EWOC) principle. The mCRM design allows the use of all cumulative dose-limiting toxicities (DLT) data up to the current dose cohort.
In Part 1, subjects were enrolled in cohorts of daily oral doses at 50 mg, 100 mg, 200 mg (1×200 mg or 4×50 mg), 300 mg (3×100 mg or 6×50 mg), 400 mg (2×200 mg or 8×50 mg), and 600 mg (3×200 mg), and loading dosing cohorts—400 mg loading dose once daily for 14 days, followed by 300 mg once daily, and 300 mg loading dose twice daily for 7 days followed by 300 mg once daily. In Part 2, subjects received daily oral doses of 300 mg.
In Part 1, PK data were available in subjects receiving doses of 50 mg (1×50 mg), 100 mg (2×50 mg), 200 mg (4×50 mg or 1×200 mg), 300 mg (6×50 mg or 3×100 mg), 400 mg (8×50 mg or 2×200 mg), and 600 mg (3×200 mg). Pharmacokinetic data were also available from the loading dose regimens of 400 mg (8×50 mg) loading dose once daily for 14 days followed by 300 mg (6×50 mg) once daily, and 300 mg (6×50 mg) loading dose twice daily for 7 days followed by 300 mg (6×50 mg) once daily.

O=C(Nc1ccnc(C(F)(F)F)c1)c1cnn(-c2cccc3c(=O)[nH]ccc23)c1C(F)(F)F [Compound A, 1-(1-oxo-1,2-dihydroisoquinolin-5-yl)-5-(trifluoromethyl)-N-[2-(trifluoromethyl)pyridin-4-yl]-1H-pyrazole-4-carboxamide]
Cmax (oral, 100 mg, Cycle 2 Day 1, 50 mg capsule, cohort 2 × 50 mg, mean, read-out: Cmax): 19900 ng/mL
Tmax (oral, 100 mg, Cycle 2 Day 1, 50 mg capsule, cohort 2 × 50 mg, median, read-out: Tmax): 2 h
AUC (oral, 200 mg, Cycle 1 Day 1, 50 mg capsule, cohort 4 × 50 mg, Subject 100032 excluded, mean, read-out: AUCτ): 118 µg·h/mL
Cmax (oral, 200 mg, Cycle 1 Day 1, 50 mg capsule, cohort 4 × 50 mg, Subject 100032 excluded, mean, read-out: Cmax): 6750 ng/mL
Tmax (oral, 200 mg, Cycle 1 Day 1, 50 mg capsule, cohort 4 × 50 mg, Subject 100032 excluded, median, read-out: Tmax): 4 h
AUC (oral, 200 mg, Cycle 1 Day 1, 200 mg capsule, cohort 200 mg, mean, read-out: AUCτ): 61.9 µg·h/mL
Cmax (oral, 200 mg, Cycle 1 Day 1, 200 mg capsule, cohort 200 mg, mean, read-out: Cmax): 4060 ng/mL
Tmax (oral, 200 mg, Cycle 1 Day 1, 200 mg capsule, cohort 200 mg, median, read-out: Tmax): 4 h
AUC (oral, 200 mg, Cycle 1 Day 1, cohort 4 × 50 mg, with Subject 100032 data included, read-out: mean AUC): 139 µg·h/mL
Cmax (oral, 200 mg, Cycle 1 Day 1, cohort 4 × 50 mg, with Subject 100032 data included, read-out: mean Cmax): 8060 ng/mL
AUC (oral, 200 mg, Cycle 2 Day 1, 50 mg capsule, cohort 4 × 50 mg, Subject 100032 excluded, mean, read-out: AUCτ): 882 µg·h/mL
Cmax (oral, 200 mg, Cycle 2 Day 1, 50 mg capsule, cohort 4 × 50 mg, Subject 100032 excluded, mean, read-out: Cmax): 44800 ng/mL
Tmax (oral, 200 mg, Cycle 2 Day 1, 50 mg capsule, cohort 4 × 50 mg, Subject 100032 excluded, median, read-out: Tmax): 2 h
Cmax (oral, 200 mg, Cycle 2 Day 1, 200 mg capsule, cohort 200 mg, individual values, N = 2, read-out: Cmax): 25700 ng/mL
AUC (oral, 200 mg, Cycle 2 Day 1, 200 mg capsule, cohort 200 mg, read-out: AUCτ): 453 µg·h/mL
AUC (oral, 200 mg, Cycle 2 Day 1, cohort 4 × 50 mg, with Subject 100032 data included, read-out: mean AUC): 1140 µg·h/mL
Cmax (oral, 200 mg, Cycle 2 Day 1, cohort 4 × 50 mg, with Subject 100032 data included, read-out: mean Cmax): 58200 ng/mL
AUC (oral, 300 mg, Cycle 1 Day 1, 50 mg capsule, cohort 6 × 50 mg (300 mg QD), mean, n = 9, read-out: AUCτ): ~152 µg·h/mL
Cmax (oral, 300 mg, Cycle 1 Day 1, 50 mg capsule, cohort 6 × 50 mg (300 mg QD), mean, read-out: Cmax): ~8810 ng/mL
Tmax (oral, 300 mg, Cycle 1 Day 1, 50 mg capsule, cohort 6 × 50 mg (300 mg QD), median, read-out: Tmax): ~4 h
Cmax (oral, 300 mg, Cycle 1 Day 1, cohort 6 × 50 mg BID > QD (300 mg BID 7 days then 300 mg QD), mean, read-out: Cmax): 4310 ng/mL
Tmax (oral, 300 mg, Cycle 1 Day 1, cohort 6 × 50 mg BID > QD (300 mg BID 7 days then 300 mg QD), median, read-out: Tmax): ~6 h
AUC (oral, 300 mg, Cycle 2 Day 1, 50 mg capsule, cohort 6 × 50 mg (300 mg QD), mean, read-out: AUCτ): ~1140 µg·h/mL
Cmax (oral, 300 mg, Cycle 2 Day 1, 50 mg capsule, cohort 6 × 50 mg (300 mg QD), mean, read-out: Cmax): ~55200 ng/mL
Tmax (oral, 300 mg, Cycle 2 Day 1, 50 mg capsule, cohort 6 × 50 mg (300 mg QD), median, read-out: Tmax): ~4 h
Tmax (oral, 300 mg, Cycle 2 Day 1, cohort 6 × 50 mg BID > QD, individual values, N = 2, read-out: Tmax): ~3 h
AUC (oral, 400 mg, Cycle 1 Day 1, 50 mg capsule, cohort 8 × 50 mg, mean, read-out: AUCτ): 131 µg·h/mL
Cmax (oral, 400 mg, Cycle 1 Day 1, 50 mg capsule, cohort 8 × 50 mg, mean, read-out: Cmax): 7560 ng/mL
Tmax (oral, 400 mg, Cycle 1 Day 1, 50 mg capsule, cohort 8 × 50 mg, median, read-out: Tmax): 3 h
AUC (oral, 400 mg, Cycle 1 Day 1, 200 mg capsule, cohort 2 × 200 mg food adlib, mean, read-out: AUCτ): 112 µg·h/mL
Cmax (oral, 400 mg, Cycle 1 Day 1, 200 mg capsule, cohort 2 × 200 mg food adlib, mean, read-out: Cmax): 6830 ng/mL
Tmax (oral, 400 mg, Cycle 1 Day 1, 200 mg capsule, cohort 2 × 200 mg food adlib, median, read-out: Tmax): 4.5 h
AUC (oral, 400 mg, Cycle 1 Day 1, 200 mg capsule, cohort 2 × 200 mg, mean, read-out: AUCτ): 68 µg·h/mL
Cmax (oral, 400 mg, Cycle 1 Day 1, 200 mg capsule, cohort 2 × 200 mg, mean, read-out: Cmax): 4190 ng/mL
Tmax (oral, 400 mg, Cycle 1 Day 1, 200 mg capsule, cohort 2 × 200 mg, median, read-out: Tmax): 5 h
AUC (oral, 400 mg, Cycle 1 Day 1, cohort 8 × 50 mg > 6 × 50 mg (400 mg QD loading 14 days then 300 mg QD), Subject 100070 excluded, mean, read-out: AUCτ): 186 µg·h/mL
Cmax (oral, 400 mg, Cycle 1 Day 1, cohort 8 × 50 mg > 6 × 50 mg (400 mg QD loading 14 days then 300 mg QD), Subject 100070 excluded, mean, read-out: Cmax): 10300 ng/mL
Tmax (oral, 400 mg, Cycle 1 Day 1, cohort 8 × 50 mg > 6 × 50 mg (400 mg QD loading 14 days then 300 mg QD), median, read-out: Tmax): 3 h
AUC (oral, 400 mg, Cycle 1 Day 1, cohort 8 × 50 mg > 6 × 50 mg, with Subject 100070 data included, read-out: mean AUC): 237 µg·h/mL
Cmax (oral, 400 mg, Cycle 1 Day 1, cohort 8 × 50 mg > 6 × 50 mg, with Subject 100070 data included, read-out: mean Cmax): 12800 ng/mL
AUC (oral, 400 mg, Cycle 2 Day 1, 50 mg capsule, cohort 8 × 50 mg, mean, read-out: AUCτ): 1590 µg·h/mL
Cmax (oral, 400 mg, Cycle 2 Day 1, 50 mg capsule, cohort 8 × 50 mg, mean, read-out: Cmax): 94100 ng/mL
Tmax (oral, 400 mg, Cycle 2 Day 1, 50 mg capsule, cohort 8 × 50 mg, median, read-out: Tmax): 3.5 h
AUC (oral, 400 mg, Cycle 2 Day 1, 200 mg capsule, cohort 2 × 200 mg food adlib, mean, read-out: AUCτ): 1330 µg·h/mL
Cmax (oral, 400 mg, Cycle 2 Day 1, 200 mg capsule, cohort 2 × 200 mg food adlib, mean, read-out: Cmax): 72300 ng/mL
Tmax (oral, 400 mg, Cycle 2 Day 1, 200 mg capsule, cohort 2 × 200 mg food adlib, median, read-out: Tmax): 8 h
AUC (oral, 400 mg, Cycle 2 Day 1, 200 mg capsule, cohort 2 × 200 mg, mean, read-out: AUCτ): 824 µg·h/mL
Cmax (oral, 400 mg, Cycle 2 Day 1, 200 mg capsule, cohort 2 × 200 mg, mean, read-out: Cmax): 43200 ng/mL
Tmax (oral, 400 mg, Cycle 2 Day 1, 200 mg capsule, cohort 2 × 200 mg, median, read-out: Tmax): 3 h
AUC (oral, 600 mg, Cycle 1 Day 1, 200 mg capsule, cohort 3 × 200 mg, individual values, N = 2, read-out: AUCτ): 123 µg·h/mL
Cmax (oral, 600 mg, Cycle 1 Day 1, 200 mg capsule, cohort 3 × 200 mg, individual values, N = 2, read-out: Cmax): 7790 ng/mL
Tmax (oral, 600 mg, Cycle 1 Day 1, 200 mg capsule, cohort 3 × 200 mg, individual values, N = 2, read-out: Tmax): 3 h
Cmax (oral, Cycle 2 Day 1, cohort 8 × 50 mg > 6 × 50 mg (400 mg QD loading 14 days then 300 mg QD), Subject 100070 excluded, mean, read-out: Cmax): 72200 ng/mL
AUC (oral, Cycle 2 Day 1, cohort 8 × 50 mg > 6 × 50 mg, Subject 100070 excluded, mean, read-out: AUCτ): 1700 µg·h/mL
Tmax (oral, Cycle 2 Day 1, cohort 8 × 50 mg > 6 × 50 mg, Subject 100070 excluded, median, read-out: Tmax): 3 h
AUC (oral, Cycle 2 Day 1, cohort 8 × 50 mg > 6 × 50 mg, with Subject 100070 data included, read-out: mean AUC): 1810 µg·h/mL
Cmax (oral, Cycle 2 Day 1, cohort 8 × 50 mg > 6 × 50 mg, with Subject 100070 data included, read-out: mean Cmax): 79700 ng/mL
Tmax (po, 50 mg, Cycle 2 Day 1, 50 mg capsule, oral daily administration, read-out: median Tmax): 2 to 4 h
Tmax (po, 200 mg, Cycle 2 Day 1, 200 mg capsule, oral daily administration, read-out: median Tmax): 3 to 8 h
Tmax (po, first oral dose at Cycle 1 Day 1, doses of 50 to 600 mg, read-out: median Tmax): 3 to 6 h
